Source: patent publication US8853389B2, “Process for refining cefmetazole sodium” (Hainan Lingkang Pharmaceutical Co., Ltd., priority 2011, dated 2014)

Tests used:
[1] = solubility in solvents; assay type: physicochemical
Excerpt: Since the solubility of Cefmetazole sodium is high in water but very low in ethanol and even lower in acetone, a mixture of water and ethanol or a mixture of water and acetone is chosen as the solvent to recrystallize Cefmetazole sodium.

[2] = appearance of aqueous solution of refined material; assay type: physicochemical; details: solution of about 0.1 g/mL in water
[3] = system: broad-spectrum β-lactamase generated by negative bacilli; details: cited from earlier work
[4] = system: Escherichia coli; details: cited from earlier work
[5] = system: Klebsiella pneumoniae; details: cited from earlier work
[6] = system: Proteus mirabilis; details: cited from earlier work
[7] = system: Shigella; details: cited from earlier work
[8] = system: Salmonella; details: cited from earlier work
[9] = system: Staphylococcus aureus; details: cited from earlier work
[10] = system: group A hemolytic streptococcus; details: cited from earlier work
[11] = system: catarrhal Brenham bacteria; details: cited from earlier work
[12] = system: Bacteroides fragilis; details: cited from earlier work
[13] = system: Enterobacter; details: cited from earlier work
[14] = system: Pseudomonas; details: cited from earlier work
[15] = system: methicillin-resistant Staphylococcus aureus; details: cited from earlier work
[16] = system: pneumococcus; details: cited from earlier work
[17] = system: meningococcus; details: cited from earlier work

Q: Which solubility ([1]; in ethanol) does the source give for CO[C@]1(NC(=O)CSCC#N)C(=O)N2C(C(=O)[O-])=C(CSc3nnnn3C)CS[C@H]21.[Na+] [Cefmetazole sodium] here?
A: very low

Q: And the solubility ([1]; in water)?
A: high

Q: What about the appearance of solution [2] of the same compound?
A: clear and colorless

Q: And the “stability towards β-lactamase” value [3]?
A: more stable

Q: What about the antibacterial activity [4] of the same compound?
A: relatively good activity

Q: What about the antibacterial activity [5] of the same compound?
A: relatively good activity

Q: What about the antibacterial activity [6] of the same compound?
A: relatively good activity

Q: What about the antibacterial activity [7] of the same compound?
A: relatively good activity

Q: And the antibacterial activity [8]?
A: relatively good activity

Q: And the sensitivity [9]?
A: high sensitivity

Q: What about the sensitivity [10] of the same compound?
A: high sensitivity

Q: What about the sensitivity [11] of the same compound?
A: high sensitivity

Q: And the antibacterial activity [12]?
A: good antibacterial activity

Q: And the sensitivity [13]?
A: low sensitivity or resistance

Q: What about the sensitivity [14] of the same compound?
A: low sensitivity or resistance

Q: What about the sensitivity [15] of the same compound?
A: low sensitivity or resistance

Q: And the sensitivity [16]?
A: low sensitivity or resistance

Q: What about the sensitivity [17] of the same compound?
A: low sensitivity or resistance
